Data taken from PMC12598559, “Absorption characteristics and in vivo behavior of astaxanthin isomers: insights from the administration of highly purified (all-E)-, (9Z)-, and (13Z)-astaxanthin in male mice” (RSC Advances, 2025).
Like-named read-outs stand apart in the source and are kept apart here. Marks after values point to notes of the source that are not given here.

What was measured:
[1] = male, ICR, mouse; for F NCA (absolute oral bioavailability) / AUC0–∞ / C max / T max: in vivo, 100 mg/kg; for AUC0–∞ / C max / T max / in vivo isomerization in plasma: po
Method: (§1) All animal experiments were performed in the I Tech Lab. Co., Ltd (Gifu, Japan). The study protocol was approved by the Institutional Animal Care and Use Committee of the company (approval numbers: ITL-25-MO-385 for the oral administration test and ITL-25-MV-386 for the intravenous injection test). Slc:ICR (ICR) male mice aged 7–8 weeks, supplied by Japan SLC Inc. (Shizuoka, Japan), were used in this study. The body weight of the mice at the beginning of the experiments ranged from 42.8 to 52.3 g. The mice were maintained under stable laboratory conditions (temperature: 18–28 °C; humidity: 30–80%; 12 h light/dark cycle) and provided with drinking water and a standard laboratory diet (MF; Oriental Yeast Co., Ltd, Tokyo, Japan) throughout the acclimation and testing periods. After an 11-day acclimation period, single oral administration and intravenous injection tests were conducted. For the oral administration test, 15 mice were randomly assigned to four groups: control (placebo; soybean oil administered), (all-E)-astaxanthin administered (n = 4), (9Z)-astaxanthin administered (n = 4), and (13Z)-astaxanthin administered (n = 4). Each astaxanthin isomer was administered to mice at a dose of 100 mg per kg body weight. […] Blood samples were collected before and 3, 6, 9, 12, and 24 h after the administration of the test diets. Fecal samples were collected 6–24 h after administering astaxanthin. In the intravenous injection test, 15 mice were randomly assigned to four groups: control (placebo; solvent intravenously injected), (all-E)-astaxanthin intravenously injected (n = 4), (9Z)-astaxanthin intravenously injected (n = 4), and (13Z)-astaxanthin intravenously injected (n = 4). Each astaxanthin isomer was intravenously injected into mice at a dose of 10 mg per kg body weight.[24] Blood samples were collected before and 1, 3, 6, 9, and 12 h after injecting the test samples. After these tests, the mice were sacrificed by exsanguination under anesthesia (ketamine hydrochloride and xylazine hydrochloride), and the liver was collected. Plasma samples were prepared from heparin-treated blood by centrifugation. The collected plasma, liver, and fecal samples were immediately stored at −80 °C under dark condition until just before astaxanthin extraction.
(§2) Astaxanthin isomers in the plasma, liver, and fecal samples were extracted according to previous reports.[14,15] In brief, astaxanthin isomers in plasma were extracted using hexane containing 0.01% BHT. An equal volume of methanol was added to each plasma sample to precipitate the proteins prior to hexane extraction. The extraction was performed three times using a vortex mixer for 30 s. After separating the hexane and aqueous layers by centrifugation, the hexane layer was carefully collected and removed using an evaporator. The obtained solid was dissolved in a mixture of hexane and ethyl acetate (9 : 1), filtered through a 0.22 μm PTFE membrane filter, and analyzed using HPLC. Astaxanthin isomers in liver and fecal samples were extracted using acetone containing 0.01% BHT. The samples were ultrasonicated at 80 W and 38 kHz for 30 min in ice water (∼5 °C) to facilitate extraction. The extraction residue was separated from the extraction liquid using a 0.22 μm PTFE membrane filter. The filtrate containing astaxanthin isomers was concentrated to dryness using an evaporator. Finally, the residue was dissolved in a mixture of hexane and ethyl acetate (9 : 1), filtered through a 0.22 μm PTFE membrane filter, and analyzed using HPLC. To minimize the isomerization and degradation of astaxanthin during the extraction process, heat and light exposure were carefully controlled.

[2] = mouse, iv; for AUC0–∞ / C max: in vivo, 10 mg/kg
Method: as §1, §2

F NCA (absolute oral bioavailability) [1]	AUC0–∞ [1] [ng·h/mL]	C max [1] [ng/mL]	T max [1]	AUC0–∞ ([2]; male, ICR) [ng·h/mL]	C max ([2]; male, ICR) [ng/mL]	SMILES	in vivo isomerization in plasma [1]	in vivo isomerization in plasma ([2]; male, ICR)	in vivo isomerization in plasma [2]
0.12	1460 ± 1350	10 ± 10	3 (9) ^d h	310 ± 200	100 ± 70	CC(C=CC=C(C)C=CC1=C(C)C(=O)C(O)CC1(C)C)=CC=CC=C(C)C=CC=C(C)C=CC1=C(C)C(=O)C(O)CC1(C)C (stereo not drawn) [(all-E)-Astaxanthin, (all-E)-astaxanthin]	a small portion of (all-E)-astaxanthin was converted to the 13Z- and 15Z-isomers	the proportion of the 13Z-isomer gradually increased over time	
0.18	82200 ± 57400	7700 ± 5090	6 h	127100 ± 32400	5460 ± 1340	CC(C=CC=C(C)C=CC1=C(C)C(=O)C(O)CC1(C)C)=CC=CC=C(C)C=CC=C(C)C=CC1=C(C)C(=O)C(O)CC1(C)C (stereo not drawn) [(13Z)-Astaxanthin, (13Z)-astaxanthin]	a minor portion of the 13Z-isomer isomerized to the all-E-isomer		the isomer composition remained relatively stable
0.04	4330 ± 2070	1010 ± 510	4 h	19400 ± 3300	2030 ± 160	CC(C=CC=C(C)C=CC1=C(C)C(=O)C(O)CC1(C)C)=CC=CC=C(C)C=CC=C(C)C=CC1=C(C)C(=O)C(O)CC1(C)C (stereo not drawn) [(9Z)-Astaxanthin, (9Z)-astaxanthin]	isomerized into a variety of Z-isomers, including the all-E-, 13Z-, and 15Z-isomers, and two unidentified Z-isomers		markedly limited isomerization
